Test results published in patent publication US11976083B2, “Inhibitors of peptidylarginine deiminases” (Gilead Sciences, Inc., priority 2020, dated 2024).

What follows are compounds tested against T1, human PAD4 (Homo sapiens, UniProt Q9UM07) (assay: In vitro PAD4 BAEE biochemical assay). Details: BAEE substrate 3 mM, 5 nM PAD4, 2 mM calcium chloride; geometric mean of multiple experiments.
T1 construct: human PAD4 (NM_012387), A2-P663, was PCR amplified; His-SUMO (N, cleaved yes); made in house; host or cells: E. coli BL21(DE3)
Procedure, shortened: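 Assay was run at 25 °C using 3 mM BAEE and 5 nM human PAD4 after a 30 min compound preincubation; ammonia produced over 2 h was quantified by OPA-derived fluorescence. Full inhibition was defined by 50 µM BB-Cl-Amidine, and IC50 came from variable-slope nonlinear regression.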

T1 sequence (Q9UM07 2-663): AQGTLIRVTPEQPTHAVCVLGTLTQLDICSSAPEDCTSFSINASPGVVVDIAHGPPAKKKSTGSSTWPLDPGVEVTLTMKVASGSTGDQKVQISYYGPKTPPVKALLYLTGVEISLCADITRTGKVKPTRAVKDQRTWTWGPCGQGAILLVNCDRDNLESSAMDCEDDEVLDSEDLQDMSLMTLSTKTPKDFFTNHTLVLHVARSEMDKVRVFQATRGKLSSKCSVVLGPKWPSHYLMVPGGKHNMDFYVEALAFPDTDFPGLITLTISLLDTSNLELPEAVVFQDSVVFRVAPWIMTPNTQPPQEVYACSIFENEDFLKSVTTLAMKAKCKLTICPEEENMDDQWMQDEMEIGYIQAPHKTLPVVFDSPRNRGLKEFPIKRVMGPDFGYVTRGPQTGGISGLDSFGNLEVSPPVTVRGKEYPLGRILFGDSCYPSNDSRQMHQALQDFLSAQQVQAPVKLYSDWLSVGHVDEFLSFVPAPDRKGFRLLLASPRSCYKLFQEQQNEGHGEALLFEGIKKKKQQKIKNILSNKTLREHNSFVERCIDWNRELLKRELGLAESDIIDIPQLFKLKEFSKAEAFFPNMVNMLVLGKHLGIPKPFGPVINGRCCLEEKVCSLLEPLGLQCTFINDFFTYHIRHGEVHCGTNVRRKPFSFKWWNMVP

Row | SMILES | IC50
1 | COc1cc(C(=O)N2CC[C@@H](OC)[C@@H](N)C2)cc2nc(-c3cc4ccc5nc4n3CCCCCC[C@@]3(CCCO3)C(=O)N[C@@H]5C)n(C)c12 [Example 687, (8~{R},11~{R})-17-[5-[(3~{S),4~{R})-3-amino-4-methoxy-piperidine-1-carbonyl]-7-methoxy-1-methyl-benzimidazol-2-yl]-11-methyl-spiro[1,10,19-triazatricyclo[10.5.2.0^ {15,18}]nonadeca-12(19),13,15(18),16-tetraene-8,2′-tetrahydrofuran]-9-one] | 64 nM
2 | COc1cc(C(=O)N2CC[C@@H](OC)[C@@H](N)C2)cc2nc(-c3cc4ccc5nc4n3CCCCC[C@H]3C[C@]3(F)C(=O)N[C@@H]5C)n(C)c12 [Example 688, (2~{R},5~{R},7~{S})-14-[5-[(3~{S},4~{R})-3-amino-4-methoxy-piperidine-1-carbonyl]-7-methoxy-1-methyl-benzimidazol-2-yl]-5-fluoro-2-methyl-3,13,19-triazatetracyclo[11.5.2.0^ {5,7}.0^{16,20}]icosa-1(19), 14,16(20),17-tetraen-4-one] | 719 nM
3 | COc1cc(C(=O)N2CC[C@@H](OC)[C@@H](N)C2)cc2nc(-c3cc4ccc5nc4n3CCCCC[C@]3(F)C[C@H]3C(=O)N[C@@H]5C)n(C)c12 [Example 689, (2~{R},5~{S},7~{S})-14-[5-[(3~{S},4~{R})-3-amino-4-methoxy-piperidine-1-carbonyl]-7-methoxy-1-methyl-benzimidazol-2-yl]-7-fluoro-2-methyl-3,13,19-triazatetracyclo[11.5.2.0^ {5,7}.0^{16,20}]icosa-1(19),14,16(20),17-tetraen-4-one] | 39 nM
4 | CO[C@@H]1CCN(C(=O)c2ccc3c(c2)nc(-c2cc4ccc5nc4n2CC(F)(F)CCC[C@@H]2C[C@H]2C(=O)N[C@@H]5C)n3C2CC2)C[C@@H]1N [Example 690, (2~{R},5~{R},7~{R})-14-[5-[(3~{S},4~{R})-3-amino-4-methoxy-piperidine-1-carbonyl]-1-cyclopropyl-benzimidazol-2-yl]-11,11-difluoro-2-methyl-3,13,19-triazatetracyclo [11.5.2.0^{5,7}.0^{16,20}] icosa-1(19),14,16(20), 17-tetraen-4-one] | 54 nM
5 | CO[C@@H]1CCN(C(=O)c2ccc3c(c2)nc(-c2cc4ccc5nc4n2CCCCC[C@@H]2C[C@H]2C(=O)N[C@@H]5C)n3C2CC2)C[C@@H]1N [Example 691, (2~{R},5~{R},7~{R})-14-[5-[(3~{S},4~{R})-3-amino-4-methoxy-piperidine-1-carbonyl]-1-cyclopropyl-benzimidazol-2-yl]-2-methyl-3,13,19-triazatetracyclo[11.5.2.0^ {5,7}.0^{16,20}]icosa-1(19),14,16(20),17-tetraen-4-one] | 33 nM
6 | COc1cc(C(=O)N2CC[C@@H](OC)[C@@H](N)C2)cc2nc(-c3cc4ccc5nc4n3CC(F)(F)CCC[C@@H]3C[C@H]3C(=O)N(C)[C@@H]5C)n(C)c12 [Example 692, (2~{R},5~{R},7~{R})-14-[5-[(3~{S},4~{R})-3-amino-4-methoxy-piperidine-1-carbonyl]-7-methoxy-1-methyl-benzimidazol-2-yl]-11,11-difluoro-2,3-dimethyl-3,13,19-triazatetracyclo[11.5.2.0^ {5,7}.0^{16,20}]icosa-1(19),14,16(20),17-tetraen-4-one] | 27 nM
7 | CO[C@@H]1CCN(C(=O)c2ccc3c(c2)nc(-c2cc4ccc5nc4n2CCCCCc2nc(Cl)ccc2C(=O)N[C@@H]5C)n3C2CC2)C[C@@H]1N [Example 693, (2~{R})-17-[5-[(3~{S},4~ {R})-3-amino-4-methoxy-piperidine-1-carbonyl]-1-cyclopropyl-benzimidazol-2-yl]-8-chloro-2-methyl-3,9,16,22-tetrazatetracyclo [14.5.2.0^{5,10}.0^ {19,23}]tricosa-1(22), 5(10),6,8,17,19(23), 20-heptaen-4-one] | 18 nM
8 | COc1cc(C(=O)N2CC[C@@H](OC)[C@@H](N)C2)cc2nc(-c3cc4ccc5nc4n3CCCCC[C@H]3C(F)(F)[C@]3(C)C(=O)N[C@@H]5C)n(C)c12 [Example 694, (2~{R},5~{S},7~{R})-14-[5-[(3~{S},4~{R})-3-amino-4-methoxy-piperidine-1-carbonyl]-7-methoxy-1-methyl-benzimidazol-2-yl]-6,6-difluoro-2,5-dimethyl-3,13,19-triazatetracyclo[11.5.2.0^ {5,7}.0^{16,20}]icosa-1(19), 14,16(20),17-tetraen-4-one] | 268 nM
9 | COc1cc(C(=O)N2CC[C@@H](OC)[C@@H](N)C2)cc2nc(-c3cc4ccc5nc4n3CCCCC[C@@H]3C[C@@]3(F)C(=O)N[C@@H]5C)n(C)c12 [Example 695, (2~{R},5~{S},7~{R})-14-[5-[(3~{S},4~{R})-3-amino-4-methoxy-piperidine-1-carbonyl]-7-methoxy-1-methyl-benzimidazol-2-yl]-5-fluoro-2-methyl-3,13,19-triazatetracyclo[11.5.2.0^ {5,7}.0^{16,20}]icosa-1(19), 14,16(20),17-tetraen-4-one] | 57 nM
10 | CO[C@@H]1CCN(C(=O)c2ccc3c(c2)nc(-c2cc4ccc5nc4n2CCCCCc2ccnc(C)c2C(=O)N[C@@H]5C)n3C2CC2)C[C@@H]1N [Example 696, (2~{R})-17-[5-[(3~{S}, 4~{R})-3-amino-4-methoxy-piperidine-1-carbonyl]-1-cyclopropyl-benzimidazol-2-yl]-2,6-dimethyl-3,7,16,22-tetrazatetracyclo [14.5.2.0^{5,10}.0^{19,23}] tricosa-1(22),5(10), 6,8,17,19(23),20-heptaen-4-one] | 48 nM
11 | COc1cc(C(=O)N2CC[C@@H](OC)[C@@H](N)C2)cc2nc(-c3cc4ccc5nc4n3CCCCCc3ccnc(C)c3C(=O)N[C@@H]5C)n(C)c12 [Example 697, (2~{R})-17-[5-[(3~{S}, 4~{R})-3-amino-4-methoxy-piperidine-1-carbonyl]-7-methoxy-1-methyl-benzimidazol-2-yl]-2,6-dimethyl-3,7,16,22-tetrazatetracyclo[14.5.2.0^ {5,10}.0^{19,23}] tricosa-1(22),5(10),6,8,17, 19(23),20-heptaen-4-one] | 74 nM
12 | CO[C@@H]1CCN(C(=O)c2cc(F)c3c(c2)nc(-c2cc4ccc5nc4n2CCCCCc2ccnc(C)c2C(=O)N[C@@H]5C)n3C2CC2)C[C@@H]1N [Example 698, (2~{R})-17-[5-[(3~{S),4~ {R})-3-amino-4-methoxy-piperidine-1-carbonyl]-1-cyclopropyl-7-fluoro-benzimidazol-2-yl]-2,6-dimethyl-3,7,16,22-tetrazatetracyclo[14.5.2.0^ {5,10).0^{19,23}]tricosa-1(22),5(10),6,8,17,19(23),20-heptaen-4-one] | 68 nM
13 | COc1cc(C(=O)N2CC[C@@H](OC)[C@@H](N)C2)cc2nc(-c3cc4ccc5nc4n3CCCCCCC[C@@H](C(F)(F)F)N[C@@H]5C)n(C)c12 [Example 699, [(3~{S},4~{R})-3-amino-4-methoxy-1-piperidyl]-[7-methoxy-1-methyl-2-[(9~{S},11~ {R})-11-methyl-9-(trifluoromethyl)-1,10,19-triazatricyclo[10.5.2.0^ {15,18}]nonadeca-12(19),13,15(18),16-tetraen-17-yl]benzimidazol-5-yl] methanone] | 640 nM
14 | CO[C@@H]1CCN(C(=O)c2cc(F)c3c(c2)nc(-c2cc4ccc5nc4n2CC(F)(F)CCC[C@]2(F)C[C@H]2C(=O)N[C@@H]5C)n3C2CC2)C[C@@H]1N [Example 700, (2~{R},5~{S},7~{S})-14-[5-[(3~{S},4~{R})-3-amino-4-methoxy-piperidine-1-carbonyl]-1-cyclopropyl-7-fluoro-benzimidazol-2-yl]-7,11,11-trifluoro-2-methyl-3,13,19-triazatetracyclo[11.5.2.0^ {5,7}.0^{16,20}]icosa-1(19),14,16(20),17-tetraen-4-one] | 22 nM
15 | C[C@@H]1[C@H](N)CCCN1C(=O)c1cc(F)c2c(c1)nc(-c1cc3ccc4nc3n1CC(F)(F)CCC[C@]1(F)C[C@H]1C(=O)N[C@@H]4C)n2C1CC1 [Example 701, (2~{R},5~{S},7~{S})-14-[5-[(2~{R},3~{R})-3-amino-2-methyl-piperidine-1-carbonyl]-1-cyclopropyl-7-fluoro-benzimidazol-2-yl]-7,11,11-trifluoro-2-methyl-3,13,19-triazatetracyclo[11.5.2.0^ {5,7}.0^{16,20}]icosa-1(19),14,16(20),17-tetraen-4-one] | 5 nM
16 | COc1cc(C(=O)N2CC[C@@H](OC)[C@@H](N)C2)cc2nc(-c3cc4ccc5nc4n3CC(F)(F)CCC[C@]3(F)C[C@H]3C(=O)N[C@@H]5C)n(C)c12 [Example 702, (2~{R},5~{S},7~{S})-14-[5-[(3~{S},4~{R})-3-amino-4-methoxy-piperidine-1-carbonyl]-7-methoxy-1-methyl-benzimidazol-2-yl]-7,11,11-trifluoro-2-methyl-3,13,19-triazatetracyclo[11.5.2.0^ {5,7}.0^{16,20}]icosa-1(19),14,16(20),17-tetraen-4-one] | 21 nM
17 | COc1cc(C(=O)N2CCC[C@@H](N)[C@H]2C)cc2nc(-c3cc4ccc5nc4n3CC(F)(F)CCC[C@]3(F)C[C@H]3C(=O)N[C@@H]5C)n(C)c12 [Example 703, (2~{R},5~{S},7~{S})-14-[5-[(2~{R},3~{R})-3-amino-2-methyl-piperidine-1-carbonyl]-7-methoxy-1-methyl-benzimidazol-2-yl]-7,11,11-trifluoro-2-methyl-3,13,19-triazatetracyclo[11.5.2.0^ {5,7}.0^{16,20}]icosa-1(19), 14,16(20),17-tetraen-4-one] | 11 nM
